Assay [1] relates to infectious HIV from monocytes. Briefly: Rapid Infectious Viral Assay (RIVA): virus release from monocytes on fibronectin-coated wells, TZM-bl reporter cell luciferase readout. The class given is cell-based, Human Immunodeficiency Virus (HIV). As to conditions: ATP 1 mM. On the procedure:
The plates were then coated with fibronectin and BSA. 150 k CD8-depleted PBMCs were added on to a 96-well for 3 hrs followed by washings using RPMI 10%. ATP (1 mM) was then added in a volume of 100 ul for a 3 hrs at 37° C. TZMs (15K) were then added on to the wells the next day. 5 days later after launch, the supernatants were removed and steady-glo reagent was added on to the TZMs and read on a Spectramax.
ATP (1 mM) was then added in a volume of 100 ul for a 3 hrs at 37° C. TZMs (10K) were then added on to the wells. 4 days later after launch, the supernatants were removed and steady-glo reagent was added on to the TZMs and read on a Spectramax.
ATP (1 mM) was then added in a volume of 100 ul for a 3 hrs at 37° C. TZMs (10K) were then added on to the wells. 3 days later after launch, the supernatants were removed and steady-glo reagent was added on to the TZMs and read on a Spectramax.
ATP (1 mM) was then added in a volume of 100 ul for a 3 hrs at 37° C. TZMs (20K) were then added on to the wells. 3 days later after launch, the supernatants were removed and steady-glo reagent was added on to the TZMs and read on a Spectramax.
In a preferred embodiment, CD8-depleted PBMC were isolated from HIV-negative donors and HIV patients with VL<50 copies/ml using Dynal beads. Peripheral monocytes (CD14) were used in a rapid infectious assay using TZM-bl coculture technique. The inventors compare this shorter infection assay to classical method of PBMC activation with anti CD3/CD28 antibodies. Major CCR5 blockers were addressed. Presence of infectious virus was also investigated using FACS and rtPCR.
FIG. 2 illustrates a test of the ability of ATP (1 mM) to release infectious virus from monocytes in presence of fibronectin coating on to the tissue culture wells. The HIV infectivity was measured by measuring the RLU on a Spectramax M5 plate readert.
1. A 96 well plate (a 48 well can be used) is coated with 100 ul RPMI containing fibronectin (50 ug/ml) in BSA (0.5%) for 30 minutes at room temperature.
2. CD8-depleted PBMC's which have been frozen at 2 million cells per ml and stored at −80 C in 22% FBS and 10% DMSO are thawed quickly and about 100 ul containing 200 k cells are added to the wells immediately
3. Let cells of interest attach for 2 hours (longer even overnight up to 20 hrs can be used)
4. Remove all the media which contains non-adherent cells and wash with 200 ul of RPMI with 10% FBS, pipetting gently, removing this wash media. The adherent monocytes remain.
5. […]
7. Finally quantitate how much viral infection has occurred by reading luciferase production using Steady Glow reagent (Promega) and a luminometer/spectrophotometer. […]

For assay [2], the system named is infectious HIV from monocytes. Briefly: ATP-triggered release of infectious virus from CD8-depleted PBMC monocytes, TZM reporter cell luciferase readout, no fibronectin coating. The class given is cell-based, Human Immunodeficiency Virus (HIV). As to conditions: ATP 1-5 mM, absence of fibronectin coating, 200 k CD8-depleted PBMCs, 3 days; HIV-positive vs negative individuals. As to the method: ATP (1 mM) was then added in a volume of 100 ul for a 3 hrs at 37° C. TZMs (10K) were then added on to the wells in 100 ul in RPMI 10%. After 3 days later, the supernatants were removed and steady-glo reagent was added on to the TZMs and read on a Spectramax.
The inventors tested the ability of ATP (1-5 mM) to release infectious virus from monocytes in absence of fibronectin coating on to the tissue culture wells. […] Further differentiation and/or activation is useful to enhance virus release.

As for `Nc1ncnc2c1ncn2[C@@H]1O[C@H](COP(=O)(O)OP(=O)(O)OP(=O)(O)O)[C@@H](O)[C@H]1O` [ATP], the “release of infectious virus from monocytes (RLU on TZMs)” value in assay [1] (fibronectin and BSA coating, 100 k CD8-depleted PBMCs O/N, 3-day assay (Format #3)) is reported as “triggers the release of the virus”; in assay [1] (fibronectin and BSA coating, 100 k CD8-depleted PBMCs O/N, 4-day assay (Format #2)) it was “triggers the release of the virus”; in assay [1] (fibronectin and BSA coating, 225 k cells, 48-well, 4-day assay (Format #4)), “triggers the release of the virus”; in assay [1] (fibronectin coating, 150 k CD8-depleted PBMCs, 5 day assay (Format #1)) it was “capable of triggering release of viral particles from monocytes”; in assay [2], “incapable of triggering release of viral particles from monocytes”.

The values above are taken from patent US20100216120A1, “Rapid infectious virus assay” (priority 2009, published 2010).
